Earlier results, collected in patent US7030077B2, “Detergent compositions” (Unilever Home and Personal Care USA, a division of Conopco, …, priority 2002, dated 2006).
Like-named read-outs stand apart in the source and are kept apart here.

[1] = other common materials, by contrast, at 20° C.

Row | SMILES | Water Solubility (g/100 g) [1] [g/100 g] | Water Solubility (g/100 g) (highly water-soluble materials, grams of solid to form a saturated solution in 100 g of deionised water at 20° C.)
1 | O=BO[O-].[Na+] [Sodium perborate anhydrous] | 3.7 | 
2 | O=P(O)(O)OP(=O)(O)OP(=O)(O)O [Sodium tripolyphosphate anhydrous] | 15 | 
3 | NC(N)=O [Urea] |  | >100
